Assay [1] relates to MCF-7. Also on record: method as in PMID 12781329, PMID 18790750. The following applies: MCF-7, 50 μM, G1 phase; cited from earlier work.
In assay [2] the test system is SKOV-3 cells. As to the kind of experiment: MTT cell viability, dose-response curves 24 h. It counts as cell-based, human. The conditions noted are these: Homo sapiens, SK-OV-3, MTT, 24 h, read-out: IC50 (half-maximal inhibitory concentration), SKOV-3. The procedure: (§1) Cultures (2 × 10^4 cells/well) were seeded with 200 μL of supplemented medium (Sigma®) in 96-well plates (Corning®, Corning, NY, USA) and incubated for 24 h. Cell treatments were 5-200 μg/mL of samples/controls for 24 h. At the end of the treatments, we added MTT (5 mg/mL, Sigma®) for 4 h of incubation, and optical density was measured at λ = 590 nm in a VariosKan® Flash (Thermo-Scientific®, Waltham, MA, USA). The half-maximal inhibitory concentration (IC50) was determined.

Assay [3] relates to KB cell. On the set-up: method as in PMID 4437313. The following applies: Ga isolated from RHTR leaves; cited from earlier work.
The test system of assay [4] is CHO-K1 cells. As to the kind of experiment: MTT cell viability, dose-response curves 24 h. It counts as cell-based. The following applies: MTT, 24 h; for IC50: Cricetulus griseus, CHO-K1, 24 h, read-out: IC50 (half-maximal inhibitory concentration), CHO-K1. Here is the method: as §1
Assay [5] relates to CACO-2 cells. Briefly: MTT cell viability, dose-response curves 24 h. It is filed as cell-based. The following applies: Homo sapiens, Caco-2, MTT, 24 h, read-out: IC50 (half-maximal inhibitory concentration), CACO-2. Here is the method: as §1
Assay [6] relates to OVCAR-3 cells. Briefly: MTT cell viability, dose-response curves 24 h. The following applies: Homo sapiens, OVCAR-3, MTT, 24 h, read-out: IC50 (half-maximal inhibitory concentration), OVCAR-3. It is filed as cell-based. Here is the method: as §1
Assay [7] has as its system BEAS-2B cells. Briefly: MTT cell viability, dose-response curves 24 h. It is filed as cell-based. The conditions noted are these: MTT; for IC50: Homo sapiens, BEAS-2B, read-out: IC50 (half-maximal inhibitory concentration), BEAS-2B. The procedure: as §1
For assay [8], the system named is ovarian cancer tumoral lesions. Also on record: method as in PMID 32276584. The following applies: 50 mg/kg, peritumoral route; cited from earlier work.
The subject of assay [9] is SKOV-3 cells. Briefly: Apoptosis (ApoTox-Glo Triplex caspase-3/7, ApoAlert DNA fragmentation/TUNEL). The conditions noted are these: 24 h, vehicle group 2.47% ± 0.4%. It counts as cell-based, human. Here is the method:
Cells (2 × 10^4/per well) were cultivated in 96-well black plates (Corning®, Corning, NY, USA) with 100 μL of supplemented medium (Sigma®, St. Louis, MO, USA) and incubated for 24 h. Treatments on adherent cells were conducted at 5-20 μg/mL of samples/controls for 24 h. Then, ApoTox-Glo™ Triplex Assay (Promega®, Madison, WI, USA) was used to determine events of viability (proliferation), cytotoxicity (necrosis), and apoptosis (caspase-3/7 activation). Additionally, apoptosis was confirmed by an ApoAlert™ DNA Fragmentation Assay (Clontech®, Kusatsu, Shiga, J.P.). Both assays were performed according to each manufacturer’s instructions. Finally, optical density was measured in a VariosKan® Flash (Thermo-Scientific®, Waltham, MA, USA).

Converted amounts (≈) assume the structure as drawn. Like-named read-outs stand apart in the source and are kept apart here.

As for `O=C(OC[C@H]1O[C@@H](OC(=O)c2cc(O)c(O)c(O)c2)[C@H](OC(=O)c2cc(O)c(O)c(O)c2)[C@@H](OC(=O)c2cc(O)c(O)c(O)c2)[C@@H]1OC(=O)c1cc(O)c(O)c(O)c1)c1cc(O)c(O)c(O)c1` [Compound 8, 1,2,3,4,6-pentakis-O-galloyl-β-D-glucose], the cell cycle effect result in assay [1] is “cell cycle arrest”.

As to `O=C(O)c1cc(O)c(O)c(O)c1` [Gallic acid, gallic acid], the IC50 in assay [2] is 50 µg/mL; in assay [2] (value in brackets) it was 294 µM; in [4] it was around 150 µg/mL; in [4] (value in brackets), 588 µM; in [5] it was 25 µg/mL; in assay [5] (value in brackets), 147 µM. The IC50 in assay [6] came out at 43 µg/mL; in assay [6] (value in brackets) it was 253 µM; in [7] (value in brackets), 147 µM. In addition, in assay [3], the “IC50, KB cell viability” value was 3.1 µg/mL (≈ 18.2 µM). Besides, the “IC50 (half-maximal inhibitory concentration), CHO-K1” value in assay [4] worked out at 100 µg/mL (≈ 588 µM). The “IC50 (half-maximal inhibitory concentration), BEAS-2B” value in assay [7] is 25 µg/mL (≈ 147 µM); in assay [7] (listed as Ga), ~ 150 μg/mL. Moreover, in assay [8], the “inhibition of tumoral lesions (of progression)” value is given as 50%.

With `CC(=O)O[C@H]1C(=O)[C@@]2(C)[C@H]([C@H](OC(=O)c3ccccc3)[C@]3(O)C[C@H](OC(=O)[C@H](O)[C@@H](NC(=O)c4ccccc4)c4ccccc4)C(C)=C1C3(C)C)[C@]1(OC(C)=O)CO[C@@H]1C[C@@H]2O` [Paclitaxel, paclitaxel, reference compound], the IC50 in assay [2] was determined as 7 µg/mL; in [2] (value in brackets), 8.2 µM; in [4] it was 10 µg/mL; in assay [4] (value in brackets), 11.7 µM; in [5] it was 20 µg/mL; in assay [5] (value in brackets), 23.4 µM. Also, the IC50 in [6] came to 8 µg/mL; in assay [6] (value in brackets), 9.37 µM; in assay [7], 8 µg/mL; in [7] (value in brackets), 9.37 µM. In addition, the “apoptosis: caspase-3/7 activity and nuclear DNA-fragmentation” value in assay [9] is listed as 46.42% ± 5.0%.

Source of the values: publication PMC8540642, “Antineoplastic Activity of Rhus trilobata Nutt. (Anacardiaceae) against Ovarian Cancer and Identification of Active Metabolites in This Pathology” (Plants, 2021).
